Tests used:
murine tumor = murine tumor volume: gemcitabine and interferon beta gene therapy vector (FIG. 21); assay type: in vivo; conditions: after 40 days; placebo about 1400
From the text: FIG. 21 is a chart comparing murine tumor volume of control; gemcitabine (administered day=0); interferon beta gene therapy vector (administered day=0); and interferon beta gene therapy vector (day=0) followed by gemcitabine (day=3).

SKOV-3m cells = assay: intraperitoneal ovarian cancer xenograft model in mice; assay type: in vivo, Balb/cA-nu female nude mice; conditions: for mean survival: control group 15±1 days
Method: Gene therapy was also combined with chemotherapy. Therapy was initiated when sizable tumors were confirmed in magnetic resonance imaging (MRI). Adenovirus-mediated gene transfer was performed intravenously (2×10^9 pfu), while chemotherapy and monoclonal anti-VEGF-antibody were dosed intraperitoneally. […] Effectiveness was assessed by survival time and surrogate measures such as sequential MRI, immunohistochemistry, microvessel density and tumor growth.
Cells were cultured in McCoy's 5A medium (Gibco, Invitrogen, Life Technologies). Cancer cells were tested to be mycoplasma free. Before in vivo inoculation, the cells were trypsinized and counted.
Chemotherapy and anti-VEGF-antibody: Carboplatin 10 mg/ml infusion concentrate was used at a dose of 80 mg/kg for the primary treatment of Balb/cA-nu mice. The dose per Balb/cA-nu was 1.6 mg/500 μl NaCl 0.9%. Paclitaxel 6 mg/ml concentrate was used at a dose of 20 mg/kg. The dose per nude mouse was 320 μg/500 μl NaCl 0.9%. […] It was injected every fifth day.
Viral vectors: Adenoviral vectors encoding sVEGFR-1-IgG fusion protein, sVEGFR-2-IgG fusion protein, sVEGFR-3-IgG fusion protein and LacZ (AdLacZ) as a control vector were used for the study.
Animal model: Eight to 10-weeks-old (n ¼ 80) Balb/cA-nu female nude mice were used for the studies. Ovarian carcinoma was produced by inoculating 1×10^7 SKOV-3m cells into the peritoneal cavity of nude mice with a 22 G needle. Development of the ovarian cancerous tumors was followed by sequential MRI. When the first solid, measurable tumor was detected in MRI, gene transfer or other treatment was started on the following day. Mice were randomly divided into six groups:
Tumors developed within 3 weeks after the inoculation of the tumor cells. The presence of all tumors was verified by MRI (magnetic resonance imaging) before starting the therapy. Tumors were observed weekly until the death of the mice. Plasma samples were collected 6, 13, 20 and 27 days after the treatment. Gene transfer was performed intravenously (i.v.) via tail vein in the final volume of 200 ll in 0.9% saline.
MRI was done weekly after gene transfer or treatment, and tumor volumes were measured. The overall follow-up time lasted until the appearance of significant symptoms necessitating sacrifice or to the death. At the time of death, all tumor tissue, liver, spleen, kidneys and lungs were harvested, and tumor masses were weighed. Ascites fluid was collected in a syringe. The mice were kept in a pathogen-free isolated unit at the National Experimental Animal Center of the University of Eastern Finland. Food, water and sawdust bedding were autoclaved, and the mice received chow and water ad libitum.
Photographs of histological sections were taken and processed using an Olympus AX70 microscope (Olympus Optical, Japan) and analySIS (Soft Imaging System, GmbH, Germany) and PhotoShop (Adobe) softwares. Microvessel density (MVD) and total microvascular area (%) of the tumors (TVA) were measured from CD34-immunostained sections using analySIS software at 100× magnification in a blinded manner (FIG. 36). Six to 10 different fields, which represented maximum MVD areas, were selected from each tumor. Necrotic areas were avoided. In addition, the total number of LYVE-1-positive lymphatic vessels per section was counted. Mean 6 SEM of the measurements are reported. […]

[1] = tested on: malignant pleural mesothelioma; conditions: in vivo; cited from earlier work

In the case of `Nc1ccn([C@@H]2O[C@H](CO)[C@@H](O)C2(F)F)c(=O)n1` [gemcitabine], the average tumor size (murine tumor) is reported as 1200 mm^3.

With bevacizumab the “effect on angiogenesis by micro-vessel measurements” value (SKOV-3m cells; mouse, in vivo) was “did not have any effect”, the “effect on survival, tumor volume or mean tumor weight” value (SKOV-3m cells; mouse, in vivo) was “did not have any significant effect” and the “effect on the survival” value (SKOV-3m cells; mouse, in vivo) was “did not have any significant effect”.

For `N.N.O=C([O-])C1(C(=O)[O-])CCC1.[Pt+2]` [carboplatin], the mean survival (SKOV-3m cells) was 13 ± 1 days.

In the case of `N.N.[Cl][Pt][Cl]` [cisplatin], the median survival time [1] is listed as 9 months.

With `CC(=O)O[C@H]1C(=O)[C@@]2(C)[C@H]([C@H](OC(=O)c3ccccc3)[C@]3(O)C[C@H](OC(=O)[C@H](O)[C@@H](NC(=O)c4ccccc4)c4ccccc4)C(C)=C1C3(C)C)[C@]1(OC(C)=O)CO[C@@H]1C[C@@H]2O` [paclitaxel] the mean survival (SKOV-3m cells) was 15 ± 1 days.
